Values joined by “and” are separate entries in the source; they are usually repeats but may differ in a detail not shown here. Equal values may be shown once. Where a name gives a salt, the structure may show the parent alone. Read-outs that look alike come from different tables or passages of the source.
Tested on: HT29 RAMS11 overexpressing cells
Assay: High-throughput viability assay (resazurin), 119 FDA-approved anticancer drugs, RAMS11 overexpressing cells (Clone1, Clone2)
[1] = OE1 (RAMS11 overexpression clone 1), 0.1 uM drug, 72 h, vs empty vector control
[2] = OE1 (RAMS11 overexpression clone 1), 1 uM drug, 72 h, vs empty vector control
[3] = OE1 (RAMS11 overexpression clone 1), 10 uM drug, 72 h, vs empty vector control
[4] = OE2 (RAMS11 overexpression clone 2), 0.1 uM drug, 72 h, vs empty vector control
[5] = OE2 (RAMS11 overexpression clone 2), 1 uM drug, 72 h, vs empty vector control
[6] = OE2 (RAMS11 overexpression clone 2), 10 uM drug, 72 h, vs empty vector control

Row | Compound | Viability Fold Change [1] | Viability Fold Change [2] | Viability Fold Change [3] | Viability Fold Change [4] | Viability Fold Change [5] | Viability Fold Change [6] | Viability Fold Change
1 | N[C@@H](Cc1ccc(N(CCCl)CCCl)cc1)C(=O)O [Melphalan] | 0.9214 | 1.006 | 0.9782 | 0.9479 | 1.068 | 0.9942 | 
2 | S=c1nc[nH]c2nc[nH]c12 [Mercaptopurine] | 0.964 | 0.9982 | 1.006 | 0.9412 | 1.029 | 1.05 | 
3 | CN(Cc1cnc2nc(N)nc(N)c2n1)c1ccc(C(=O)N[C@@H](CCC(=O)O)C(=O)O)cc1 [Methotrexate] | 0.9199 | 0.5578 | 1.197 | 0.9143 | 0.5752 | 1.137 | 
4 | COc1c2occc2cc2ccc(=O)oc12 [Methoxsalen] | 0.9521 | 0.971 | 0.7883 | 0.8888 | 0.9485 | 0.9406 | 
5 | CO[C@@]12[C@H](COC(N)=O)C3=C(C(=O)C(C)=C(N)C3=O)N1C[C@@H]1N[C@@H]12 [Mitomycin] | 0.9668 | 1.547 | 2.416 | 1.006 | 1.624 | 2.004 | 
6 | Clc1ccc(C(c2ccccc2Cl)C(Cl)Cl)cc1 (stereo not shown) [Mitotane] | 0.8185 | 0.9667 | 0.9105 | 0.9482 | 0.9714 | 0.987 | 
7 | O=C1c2c(O)ccc(O)c2C(=O)c2c(NCCNCCO)ccc(NCCNCCO)c21 [Mitoxantrone] | 1.145 | 1.451 | 1.375 | 1.105 | 1.432 | 1.508 | 
8 | COc1nc(N)nc2c1ncn2[C@@H]1O[C@H](CO)[C@@H](O)[C@@H]1O [Nelarabine] | 0.9819 | 1.033 | 0.9555 | 0.9462 | 1.007 | 0.9701 | 
9 | Cc1cn(-c2cc(NC(=O)c3ccc(C)c(Nc4nccc(-c5cccnc5)n4)c3)cc(C(F)(F)F)c2)cn1 [Nilotinib] | 0.8679 | 0.749 | 0.7379 | 1.013 | 0.888 | 0.7462 | 
10 | O=C(c1cc(Cc2n[nH]c(=O)c3ccccc23)ccc1F)N1CCN(C(=O)C2CC2)CC1 [Olaparib] | 0.8162 | 0.9061 | 1 | 0.9035 | 0.952 | 0.9733 | 
11 | COC(=O)C[C@](O)(CCCC(C)(C)O)C(=O)O[C@@H]1C(OC)=C[C@]23CCCN2CCc2cc4c(cc2[C@H]13)OCO4 [Omacetaxine mepesuccinate] | 1.354 | 1.614 | 1.606 | 1.376 | 1.468 | 1.436 | 
12 | CC(=O)O[C@H]1C(=O)[C@@]2(C)[C@H]([C@H](OC(=O)c3ccccc3)[C@]3(O)C[C@H](OC(=O)[C@H](O)[C@@H](NC(=O)c4ccccc4)c4ccccc4)C(C)=C1C3(C)C)[C@]1(OC(C)=O)CO[C@@H]1C[C@@H]2O [Paclitaxel] | 2.775 | 3.5 | 3.241 | 2.662 | 3.065 | 3.061 | 
13 | Cc1ccc(Nc2nccc(N(C)c3ccc4c(C)n(C)nc4c3)n2)cc1S(N)(=O)=O [Pazopanib hydrochloride] | 0.8743 | 0.7793 | 0.8633 | 0.9409 | 0.9056 | 0.9152 | 
14 | Nc1nc2[nH]cc(CCc3ccc(C(=O)N[C@@H](CCC(=O)O)C(=O)O)cc3)c2c(=O)[nH]1 [Pemetrexed disodium salt] | 0.9118 | 0.9424 | 1.886 | 0.9953 | 0.9455 | 1.933 | 
15 | OC[C@H]1O[C@@H](n2cnc3c2NC=NC[C@H]3O)C[C@@H]1O [Pentostatin] | 0.9312 | 0.9502 | 0.8658 | 0.9287 | 0.9777 | 1.078 | 
16 | O=C(CCBr)N1CCN(C(=O)CCBr)CC1 [Pipobroman] | 0.9413 | 0.9838 | 0.9918 | 0.9432 | 0.9438 | 0.8949 | 
17 | c1cc(CN2CCCNCCNCCCNCC2)ccc1CN1CCCNCCNCCCNCC1 [Plerixafor] | 0.9866 | 1.152 | 1.057 | 1.085 | 1.208 | 1.062 | 
18 | Nc1cccc2c1C(=O)N(C1CCC(=O)NC1=O)C2=O (stereo not shown) [Pomalidomide] | 0.9335 | 0.9509 | 0.9014 | 0.9444 | 0.9433 | 0.933 | 
19 | Cc1ccc(C(=O)Nc2ccc(CN3CCN(C)CC3)c(C(F)(F)F)c2)cc1C#Cc1cnc2cccnn12 [Ponatinib] |  |  |  |  |  |  | 1.056 and 0.9383 and 0.9645 and 1.199 and 0.9342 and 1.001
20 | C#CCC(Cc1cnc2nc(N)nc(N)c2n1)c1ccc(C(=O)N[C@@H](CCC(=O)O)C(=O)O)cc1 (stereo partly shown) [Pralatrexate] | 0.7405 | 0.9216 | 1.034 | 0.8579 | 0.9781 | 1.119 | 
21 | CNNCc1ccc(C(=O)NC(C)C)cc1 [Procarbazine] | 1.003 | 1.042 | 0.9825 | 0.9328 | 1.046 | 0.9303 | 
22 | O=C(c1ccc(OCCN2CCCCC2)cc1)c1c(-c2ccc(O)cc2)sc2cc(O)ccc12 [Raloxifene] | 0.9457 | 0.9244 | 0.9067 | 0.9401 | 0.9282 | 0.9671 | 
23 | CO[C@H]1C[C@@H]2CC[C@@H](C)[C@@](O)(O2)C(=O)C(=O)N2CCCC[C@H]2C(=O)O[C@H]([C@H](C)C[C@@H]2CC[C@@H](O)[C@H](OC)C2)CC(=O)[C@H](C)/C=C(\C)[C@@H](O)[C@@H](OC)C(=O)[C@H](C)C[C@H](C)/C=C/C=C/C=C/1C [Rapamycin] | 0.7003 | 0.7403 | 0.7222 | 0.6232 | 0.772 | 0.7575 | 
24 | CNC(=O)c1cc(Oc2ccc(NC(=O)Nc3ccc(Cl)c(C(F)(F)F)c3)c(F)c2)ccn1 [Regorafenib] | 0.938 | 0.9476 | 1.158 | 0.9919 | 1.09 | 1.143 | 
25 | C/C=C1\NC(=O)[C@H]2CSSCC/C=C/[C@H](CC(=O)N[C@H](C(C)C)C(=O)N2)OC(=O)[C@H](C(C)C)NC1=O [Romidepsin] | 6.243 | 5.327 | 4.427 | 6.211 | 5.577 | 4.697 | 
26 | CNC(=O)c1cc(Oc2ccc(NC(=O)Nc3ccc(Cl)c(C(F)(F)F)c3)cc2)ccn1 [Sorafenib] | 0.8542 | 0.8177 | 1.022 | 0.8959 | 0.8971 | 1.017 | 
27 | CN(N=O)C(=O)N[C@@H](C=O)[C@@H](O)[C@H](O)[C@H](O)CO [Streptozocin] | 1.06 | 1.011 | 0.905 | 0.9729 | 1.036 | 0.9955 | 
28 | CCN(CC)CCNC(=O)c1c(C)[nH]c(/C=C2\C(=O)Nc3ccc(F)cc32)c1C [Sunitinib] | 0.8337 | 0.8856 | 0.2329 | 0.914 | 0.9165 | 0.5714 | 
29 | CC/C(=C(\c1ccccc1)c1ccc(OCCN(C)C)cc1)c1ccccc1 [Tamoxifen Citrate] | 1.127 | 1.144 | 1.077 | 1.097 | 1.08 | 1.059 | 
30 | Cn1nnc2c(C(N)=O)ncn2c1=O [Temozolomide] | 0.9344 | 0.9467 | 0.8777 | 0.8975 | 1.032 | 0.9198 | 

Reference: patent publication US12024707B2, “Methods and compositions for modulating lncRNAs and methods of treatment based on lncRNA expression” (Washington University, priority 2020, dated 2024)
